From ChEMBL document CHEMBL3774336, “Identification of spirooxindole and dibenzoxazepine motifs as potent mineralocorticoid receptor antagonists” (Bioorg Med Chem, 2016)

What was measured:
[1] = target: T1, Mineralocorticoid receptor (Homo sapiens, UniProt P08235, C808S)
[2] = target: T1, Mineralocorticoid receptor; remark: listed apart in the source
[3] = target: Histamine H1 receptor (Homo sapiens) (UniProt P35367); assay: Inhibition of histamine H1 receptor (unknown origin) at 10 uM
Cytochrome P450 2D6 = Cytochrome P450 2D6 (Homo sapiens, UniProt P10635); assay: Inhibition of CYP2D6 (unknown origin); assay type: ADME
Cytochrome P450 2D6, sequence (P10635 whole entry, the tested form may be a part): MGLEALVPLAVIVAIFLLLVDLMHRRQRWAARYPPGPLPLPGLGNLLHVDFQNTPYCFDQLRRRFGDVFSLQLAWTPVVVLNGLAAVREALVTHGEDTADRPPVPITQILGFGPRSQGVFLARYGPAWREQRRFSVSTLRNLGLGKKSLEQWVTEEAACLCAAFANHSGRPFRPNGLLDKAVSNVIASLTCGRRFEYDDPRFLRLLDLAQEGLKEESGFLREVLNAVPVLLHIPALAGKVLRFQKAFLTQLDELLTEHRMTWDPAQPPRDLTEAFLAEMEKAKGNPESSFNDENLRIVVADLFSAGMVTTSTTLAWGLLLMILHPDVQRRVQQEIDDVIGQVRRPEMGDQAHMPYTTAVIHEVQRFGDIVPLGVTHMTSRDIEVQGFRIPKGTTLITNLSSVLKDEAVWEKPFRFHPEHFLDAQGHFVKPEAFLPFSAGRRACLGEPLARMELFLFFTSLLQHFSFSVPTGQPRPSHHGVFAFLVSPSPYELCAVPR

Glucocorticoid receptor = target: T2, Glucocorticoid receptor (Homo sapiens, UniProt P04150); assay: Inhibition of GST-tagged human glucocorticoid receptor LBD domain expressed in insect cells at by Gal4-based fluorescence polarization assay
T2 sequence (P04150 whole entry): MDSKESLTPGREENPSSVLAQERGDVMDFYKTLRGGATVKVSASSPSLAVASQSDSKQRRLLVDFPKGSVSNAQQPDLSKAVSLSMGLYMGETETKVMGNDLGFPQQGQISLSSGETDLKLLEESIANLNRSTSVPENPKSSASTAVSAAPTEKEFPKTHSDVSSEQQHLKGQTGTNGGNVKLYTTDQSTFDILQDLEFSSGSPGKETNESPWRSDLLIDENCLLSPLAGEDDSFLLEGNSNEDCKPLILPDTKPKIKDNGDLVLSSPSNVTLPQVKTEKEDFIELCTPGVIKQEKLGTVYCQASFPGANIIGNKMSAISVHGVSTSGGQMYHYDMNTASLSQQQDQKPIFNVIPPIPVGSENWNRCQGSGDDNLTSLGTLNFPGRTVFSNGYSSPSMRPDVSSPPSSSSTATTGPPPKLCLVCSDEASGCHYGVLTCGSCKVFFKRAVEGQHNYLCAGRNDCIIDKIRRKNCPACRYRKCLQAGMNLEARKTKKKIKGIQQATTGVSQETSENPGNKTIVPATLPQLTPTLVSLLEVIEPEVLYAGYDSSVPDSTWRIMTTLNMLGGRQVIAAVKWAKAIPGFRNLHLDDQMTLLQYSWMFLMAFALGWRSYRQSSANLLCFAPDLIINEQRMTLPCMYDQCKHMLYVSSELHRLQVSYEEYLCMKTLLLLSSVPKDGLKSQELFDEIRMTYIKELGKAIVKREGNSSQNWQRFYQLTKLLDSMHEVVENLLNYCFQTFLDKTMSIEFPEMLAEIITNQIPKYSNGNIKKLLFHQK

Cytochrome P450 3A4 = Cytochrome P450 3A4 (Homo sapiens, UniProt P08684)
Cytochrome P450 3A4, sequence (P08684 whole entry): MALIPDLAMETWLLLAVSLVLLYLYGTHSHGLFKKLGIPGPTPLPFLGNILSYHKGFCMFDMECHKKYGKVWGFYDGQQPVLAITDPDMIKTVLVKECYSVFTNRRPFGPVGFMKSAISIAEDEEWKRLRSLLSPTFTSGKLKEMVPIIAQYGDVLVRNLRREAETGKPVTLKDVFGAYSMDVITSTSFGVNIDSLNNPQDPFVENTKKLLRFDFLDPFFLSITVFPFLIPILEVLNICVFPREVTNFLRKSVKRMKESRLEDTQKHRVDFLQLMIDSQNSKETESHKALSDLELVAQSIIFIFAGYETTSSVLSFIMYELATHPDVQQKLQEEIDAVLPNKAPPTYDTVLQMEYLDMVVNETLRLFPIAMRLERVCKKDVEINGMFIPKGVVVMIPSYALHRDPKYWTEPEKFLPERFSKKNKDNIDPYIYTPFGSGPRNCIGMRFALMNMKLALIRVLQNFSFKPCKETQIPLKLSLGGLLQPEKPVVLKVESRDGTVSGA
Description: Inhibition of CYP3A4 (unknown origin)

hERG (KCNH2) = hERG (KCNH2) (Homo sapiens, UniProt Q12809); assay: Inhibition of human ERG (unknown origin) at 10 uM
hERG (KCNH2), sequence (Q12809 whole entry): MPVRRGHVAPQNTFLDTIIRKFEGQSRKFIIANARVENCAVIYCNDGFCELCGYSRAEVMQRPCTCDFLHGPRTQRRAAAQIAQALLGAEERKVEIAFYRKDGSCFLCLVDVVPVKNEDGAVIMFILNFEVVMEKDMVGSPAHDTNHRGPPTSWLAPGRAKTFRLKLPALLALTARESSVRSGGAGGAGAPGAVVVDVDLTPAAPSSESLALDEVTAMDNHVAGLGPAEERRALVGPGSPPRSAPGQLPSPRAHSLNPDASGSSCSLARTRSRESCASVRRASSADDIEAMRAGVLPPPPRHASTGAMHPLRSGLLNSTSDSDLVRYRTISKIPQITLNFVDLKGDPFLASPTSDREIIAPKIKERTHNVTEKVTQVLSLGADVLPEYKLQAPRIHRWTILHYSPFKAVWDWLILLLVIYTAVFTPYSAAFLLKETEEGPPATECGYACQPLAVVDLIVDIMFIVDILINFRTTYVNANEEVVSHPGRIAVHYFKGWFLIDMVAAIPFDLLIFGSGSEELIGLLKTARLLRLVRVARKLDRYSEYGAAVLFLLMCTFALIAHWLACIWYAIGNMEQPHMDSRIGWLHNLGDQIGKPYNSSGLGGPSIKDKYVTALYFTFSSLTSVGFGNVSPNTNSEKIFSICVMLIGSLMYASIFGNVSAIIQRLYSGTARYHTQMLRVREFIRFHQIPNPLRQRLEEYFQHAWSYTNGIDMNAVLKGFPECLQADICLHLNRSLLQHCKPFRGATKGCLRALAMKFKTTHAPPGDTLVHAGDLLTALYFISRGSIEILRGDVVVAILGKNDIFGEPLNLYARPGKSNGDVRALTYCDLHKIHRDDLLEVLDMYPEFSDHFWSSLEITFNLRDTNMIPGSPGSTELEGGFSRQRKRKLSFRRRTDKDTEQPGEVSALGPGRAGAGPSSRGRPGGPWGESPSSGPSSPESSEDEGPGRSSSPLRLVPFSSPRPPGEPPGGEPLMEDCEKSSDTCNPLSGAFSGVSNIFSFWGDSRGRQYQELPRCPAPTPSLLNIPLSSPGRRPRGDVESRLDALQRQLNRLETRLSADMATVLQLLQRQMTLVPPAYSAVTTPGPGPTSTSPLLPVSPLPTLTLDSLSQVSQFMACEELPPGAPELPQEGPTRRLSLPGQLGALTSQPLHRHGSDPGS

Cytochrome P450 2C9 = Cytochrome P450 2C9 (Homo sapiens, UniProt P11712); assay: Inhibition of CYP2C9 (unknown origin); assay type: ADME
Cytochrome P450 2C9, sequence (P11712 whole entry, the tested form may be a part): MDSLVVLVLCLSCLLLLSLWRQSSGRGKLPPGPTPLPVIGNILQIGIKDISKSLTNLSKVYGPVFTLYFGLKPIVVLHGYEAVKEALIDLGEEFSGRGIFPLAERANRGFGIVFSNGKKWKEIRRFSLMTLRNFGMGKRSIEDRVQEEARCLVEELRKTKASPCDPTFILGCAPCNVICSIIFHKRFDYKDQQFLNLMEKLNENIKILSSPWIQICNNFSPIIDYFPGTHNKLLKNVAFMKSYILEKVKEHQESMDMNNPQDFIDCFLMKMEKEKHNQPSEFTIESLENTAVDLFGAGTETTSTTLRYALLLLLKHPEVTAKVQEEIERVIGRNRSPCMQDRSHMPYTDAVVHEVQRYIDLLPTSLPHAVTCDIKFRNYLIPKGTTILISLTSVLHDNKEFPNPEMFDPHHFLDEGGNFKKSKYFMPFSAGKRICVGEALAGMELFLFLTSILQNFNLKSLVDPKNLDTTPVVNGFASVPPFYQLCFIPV

Estrogen receptor = target: T3, Estrogen receptor (Homo sapiens, UniProt P03372); assay: Inhibition of estrogen receptor (unknown origin) by Gal4-based luciferase assay
T3 sequence (P03372 whole entry): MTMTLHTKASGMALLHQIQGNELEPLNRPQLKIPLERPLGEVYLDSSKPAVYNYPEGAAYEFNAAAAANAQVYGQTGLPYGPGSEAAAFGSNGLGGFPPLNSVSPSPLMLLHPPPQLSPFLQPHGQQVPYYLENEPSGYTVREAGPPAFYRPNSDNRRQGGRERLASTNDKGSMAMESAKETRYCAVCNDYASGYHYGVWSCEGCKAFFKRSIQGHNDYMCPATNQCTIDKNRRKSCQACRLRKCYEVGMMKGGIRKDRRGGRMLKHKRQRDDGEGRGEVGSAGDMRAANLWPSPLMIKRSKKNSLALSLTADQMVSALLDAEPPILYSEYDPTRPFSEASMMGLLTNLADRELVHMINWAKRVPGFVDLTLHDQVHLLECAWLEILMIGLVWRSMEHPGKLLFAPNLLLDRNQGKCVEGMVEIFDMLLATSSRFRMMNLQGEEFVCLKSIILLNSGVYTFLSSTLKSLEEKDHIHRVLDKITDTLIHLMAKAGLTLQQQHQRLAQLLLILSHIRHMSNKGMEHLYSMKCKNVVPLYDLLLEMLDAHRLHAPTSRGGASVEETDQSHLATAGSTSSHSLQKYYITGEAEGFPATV

[4] = target: 5-hydroxytryptamine receptor 2B (Homo sapiens) (UniProt P41595); assay: Inhibition of serotonin 5H2B receptor (unknown origin) at 10 uM
5-hydroxytryptamine receptor 2B (Homo sapiens), sequence (P41595 whole entry): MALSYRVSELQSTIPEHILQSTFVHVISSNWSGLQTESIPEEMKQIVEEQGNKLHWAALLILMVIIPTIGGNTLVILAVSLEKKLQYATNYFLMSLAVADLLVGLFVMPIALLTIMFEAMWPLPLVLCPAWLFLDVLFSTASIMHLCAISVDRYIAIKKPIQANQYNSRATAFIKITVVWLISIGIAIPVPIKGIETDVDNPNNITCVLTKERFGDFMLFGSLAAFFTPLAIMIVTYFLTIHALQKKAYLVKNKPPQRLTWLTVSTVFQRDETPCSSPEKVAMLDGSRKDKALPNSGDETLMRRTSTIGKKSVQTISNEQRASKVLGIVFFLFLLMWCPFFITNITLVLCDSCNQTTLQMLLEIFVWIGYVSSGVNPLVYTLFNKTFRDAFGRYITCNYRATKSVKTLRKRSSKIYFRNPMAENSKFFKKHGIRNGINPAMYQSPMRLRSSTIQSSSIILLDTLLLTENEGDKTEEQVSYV

[5] = target: T4, Alpha-2A adrenergic receptor (Homo sapiens) (UniProt P08913); assay: Inhibition of adrenergic alpha2A receptor (unknown origin) at 10 uM
T4 sequence (whole entry): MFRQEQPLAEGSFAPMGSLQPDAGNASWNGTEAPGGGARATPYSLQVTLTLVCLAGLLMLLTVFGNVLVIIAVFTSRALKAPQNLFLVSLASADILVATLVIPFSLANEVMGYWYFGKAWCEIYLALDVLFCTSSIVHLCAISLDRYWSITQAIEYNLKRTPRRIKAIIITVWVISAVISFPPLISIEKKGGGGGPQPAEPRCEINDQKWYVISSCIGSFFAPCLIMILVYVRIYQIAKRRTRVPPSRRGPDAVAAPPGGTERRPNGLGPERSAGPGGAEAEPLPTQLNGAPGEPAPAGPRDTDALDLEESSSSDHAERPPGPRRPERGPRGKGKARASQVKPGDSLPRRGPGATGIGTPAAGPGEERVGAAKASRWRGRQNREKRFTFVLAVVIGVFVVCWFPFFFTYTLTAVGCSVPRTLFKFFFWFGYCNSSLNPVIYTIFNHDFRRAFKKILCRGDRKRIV

[6] = Half life of compound in rat liver microsomes; assay type: ADME
Progesterone receptor = target: T5, Progesterone receptor (Homo sapiens, UniProt P06401); assay: Inhibition of GST-tagged human progesterone receptor LBD domain expressed in insect cells by Gal4-based fluorescence polarization assay
T5 sequence (P06401 whole entry): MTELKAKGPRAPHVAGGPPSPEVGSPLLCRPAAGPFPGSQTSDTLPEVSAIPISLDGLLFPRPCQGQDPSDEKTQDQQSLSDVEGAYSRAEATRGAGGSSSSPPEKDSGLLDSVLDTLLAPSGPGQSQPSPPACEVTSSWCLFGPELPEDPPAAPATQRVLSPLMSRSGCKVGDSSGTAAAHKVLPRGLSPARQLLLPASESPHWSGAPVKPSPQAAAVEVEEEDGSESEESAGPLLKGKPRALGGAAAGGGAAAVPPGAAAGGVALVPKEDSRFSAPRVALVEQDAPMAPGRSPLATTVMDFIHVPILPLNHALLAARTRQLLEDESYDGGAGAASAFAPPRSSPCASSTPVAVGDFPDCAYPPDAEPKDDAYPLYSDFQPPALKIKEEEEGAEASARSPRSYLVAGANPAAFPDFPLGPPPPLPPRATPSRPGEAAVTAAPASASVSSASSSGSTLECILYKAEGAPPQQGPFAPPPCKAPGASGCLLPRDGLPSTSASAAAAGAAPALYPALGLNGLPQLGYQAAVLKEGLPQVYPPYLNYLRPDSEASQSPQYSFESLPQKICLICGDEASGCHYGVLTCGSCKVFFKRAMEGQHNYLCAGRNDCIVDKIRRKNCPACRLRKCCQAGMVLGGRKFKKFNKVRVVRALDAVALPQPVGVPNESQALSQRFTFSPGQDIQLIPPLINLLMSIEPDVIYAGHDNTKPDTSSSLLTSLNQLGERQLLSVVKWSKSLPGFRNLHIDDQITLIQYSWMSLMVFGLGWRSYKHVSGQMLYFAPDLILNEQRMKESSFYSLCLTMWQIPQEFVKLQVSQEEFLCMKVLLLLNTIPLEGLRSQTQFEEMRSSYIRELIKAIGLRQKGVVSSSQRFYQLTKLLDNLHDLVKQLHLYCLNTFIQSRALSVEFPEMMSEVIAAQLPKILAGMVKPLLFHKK

T1 sequence (P08235 whole entry C808S): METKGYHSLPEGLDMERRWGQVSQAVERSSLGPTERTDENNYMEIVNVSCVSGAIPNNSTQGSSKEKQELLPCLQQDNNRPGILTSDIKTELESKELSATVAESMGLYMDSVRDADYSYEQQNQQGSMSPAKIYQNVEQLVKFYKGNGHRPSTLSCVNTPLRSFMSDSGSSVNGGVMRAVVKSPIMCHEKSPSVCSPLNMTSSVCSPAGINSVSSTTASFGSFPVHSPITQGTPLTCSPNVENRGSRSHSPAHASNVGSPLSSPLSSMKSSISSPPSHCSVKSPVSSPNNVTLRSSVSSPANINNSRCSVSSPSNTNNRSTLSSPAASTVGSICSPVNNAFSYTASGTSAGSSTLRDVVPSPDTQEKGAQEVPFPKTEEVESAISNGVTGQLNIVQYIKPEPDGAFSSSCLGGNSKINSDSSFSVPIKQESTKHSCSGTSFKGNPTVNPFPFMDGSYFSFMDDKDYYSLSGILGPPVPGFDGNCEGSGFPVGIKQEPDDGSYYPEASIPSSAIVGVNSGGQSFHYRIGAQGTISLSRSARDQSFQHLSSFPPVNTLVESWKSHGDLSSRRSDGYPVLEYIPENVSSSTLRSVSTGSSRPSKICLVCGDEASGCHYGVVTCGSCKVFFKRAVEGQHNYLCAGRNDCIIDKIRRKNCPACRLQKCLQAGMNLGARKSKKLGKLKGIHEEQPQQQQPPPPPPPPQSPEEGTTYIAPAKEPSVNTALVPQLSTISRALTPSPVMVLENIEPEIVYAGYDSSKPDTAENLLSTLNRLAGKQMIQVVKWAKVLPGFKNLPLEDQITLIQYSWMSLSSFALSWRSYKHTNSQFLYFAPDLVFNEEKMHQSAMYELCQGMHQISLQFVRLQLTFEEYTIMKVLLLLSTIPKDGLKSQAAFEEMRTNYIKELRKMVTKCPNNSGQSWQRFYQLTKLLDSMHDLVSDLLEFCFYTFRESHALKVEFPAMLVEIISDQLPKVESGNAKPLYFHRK
Histamine H1 receptor (Homo sapiens), sequence (P35367 whole entry): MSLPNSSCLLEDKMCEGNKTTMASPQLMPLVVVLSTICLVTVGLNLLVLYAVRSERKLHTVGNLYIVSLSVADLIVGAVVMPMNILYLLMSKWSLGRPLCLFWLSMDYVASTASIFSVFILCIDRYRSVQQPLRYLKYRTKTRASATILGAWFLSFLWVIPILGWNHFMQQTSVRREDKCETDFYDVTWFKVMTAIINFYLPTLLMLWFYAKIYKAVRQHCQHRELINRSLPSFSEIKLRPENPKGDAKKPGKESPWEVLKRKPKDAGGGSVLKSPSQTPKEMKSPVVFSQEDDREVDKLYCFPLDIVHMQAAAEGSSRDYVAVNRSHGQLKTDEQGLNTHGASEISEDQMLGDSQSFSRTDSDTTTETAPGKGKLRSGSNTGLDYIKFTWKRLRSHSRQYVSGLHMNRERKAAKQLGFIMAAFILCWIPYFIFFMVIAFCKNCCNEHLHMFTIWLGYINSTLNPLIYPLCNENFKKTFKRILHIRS

SMILES | Ki [1] [nM] | IC50 [2] [nM] | inhibition [3] [%] | IC50 (Cytochrome P450 2D6) [nM] | IC50 (Glucocorticoid receptor) [nM] | IC50 (Cytochrome P450 3A4) [nM] | IC50 (Cytochrome P450 2C9) [nM] | IC50 (Estrogen receptor) [nM] | inhibition [4] [%] | inhibition [5] [%] | half-life [6] [min] | IC50 (Progesterone receptor) [nM] | inhibition at 10 µM (hERG (KCNH2)) [%]
O=C1COc2ccc(N(Cc3cccnc3)c3ccc(F)cc3)cc2N1 | 1450 | 1510 | – | – | – | – | – | – | – | – | – | – | –
O=C1COc2ccc(C#Cc3ccc(F)cc3F)cc2N1 | 144 | 772 | – | – | – | – | – | – | – | – | – | – | –
O=C1COc2ccc(/C=C/c3ccc(F)cc3F)cc2N1 | 162 | 2300 | – | – | – | – | – | – | – | – | – | – | –
CN(Cc1ccc2c(c1)NC(=O)CO2)c1ccc(F)cc1F | 230 | 306 | – | – | – | – | – | – | – | – | – | – | –
O=C(O)CCN1CCC2(CC1)C(=O)Nc1cc(/C=C3\c4ccccc4COc4cc(F)ccc43)ccc12 | 16 | 29 | 60 | 29900 | > 12000 | 26000 | 12600 | > 12000 | 36 | 75 | > 60 | > 12000 | 32
O=C1COc2ccc(S(=O)(=O)N(Cc3cccnc3)c3ccc(F)cc3)cc2N1 | > 10 | > 10 | – | – | – | – | – | – | – | – | – | – | –
O=C1COc2ccc(COc3ccc(F)cc3F)cc2N1 | 980 | 1800 | – | – | – | – | – | – | – | – | – | – | –
O=S1(=O)Cc2ccc(/C=C3\c4ccccc4COc4cc(F)ccc43)cc2N1 | 694 | 2550 | – | – | – | – | – | – | – | – | – | – | –
O=C(c1ccc2c(c1)NC(=O)C21CCNCC1)N1c2ccccc2COc2cc(F)ccc21 | 1090 | 4930 | – | – | – | – | – | – | – | – | – | – | –
O=C1Nc2cc(CN3c4ccccc4COc4cc(F)ccc43)ccc2C12CCNCC2 | 1080 | 2990 | – | – | – | – | – | – | – | – | – | – | –
O=C1COc2ccc(/C=C\c3ccc(F)cc3F)cc2N1 | 258 | 1510 | – | – | – | – | – | – | – | – | – | – | –
O=C1Nc2cc(S(=O)(=O)N3c4ccccc4COc4cc(F)ccc43)ccc2C12CCNCC2 | 5490 | 5220 | – | – | – | – | – | – | – | – | – | – | –
O=C1COc2ccc(S(=O)(=O)N3c4ccccc4COc4cc(F)ccc43)cc2N1 | 129 | 56 | 1 | 21300 | – | – | 1560 | – | 34 | 24 | – | – | 28

Second part, led by results:

Ki [1] [nM] | IC50 [2] [nM] | inhibition [3] [%] | IC50 (Cytochrome P450 2D6) [nM] | IC50 (Glucocorticoid receptor) [nM] | IC50 (Cytochrome P450 3A4) [nM] | IC50 (Cytochrome P450 2C9) [nM] | IC50 (Estrogen receptor) [nM] | inhibition [4] [%] | inhibition [5] [%] | half-life [6] [min] | IC50 (Progesterone receptor) [nM] | SMILES | inhibition at 10 µM (hERG (KCNH2)) [%]
55 | 1570 | – | – | – | – | – | – | – | – | – | – | O=C1COc2ccc(/C=C(\c3ccccc3)c3ccc(F)cc3F)cc2N1 | –
14 | 318 | – | – | – | – | – | – | – | – | – | – | OC1CCc2c(/C=C3\c4ccccc4COc4cc(F)ccc43)cccc21 (configuration not stated) | –
6 | 21 | 33 | 4100 | 651 | 363 | 397 | > 2000 | 71 | 85 | > 60 | > 2000 | CC1(C)OC(=S)Nc2ccc(S(=O)(=O)N3c4ccccc4COc4cc(F)ccc43)cc21 | 48
13 | 148 | – | – | – | – | – | – | – | – | – | – | O=C1CCc2c(/C=C3\c4ccccc4COc4cc(F)ccc43)cccc21 | –
6 | 6 | 77 | 7750 | > 5000 | 4780 | 3260 | > 40000 | 79 | 88 | 53 | > 5000 | CN(C)CC(=O)N1CCC2(CC1)C(=O)Nc1cc(/C=C3\c4ccccc4COc4cc(F)ccc43)ccc12 | 98
31 | 176 | 47 | 16400 | – | 5540 | 649 | – | 94 | 72 | – | – | O=C1COc2ccc(CN3c4ccccc4COc4cc(F)ccc43)cc2N1 | 29
9 | 23 | 49 | > 30000 | > 25000 | 5810 | 1600 | > 25000 | 62 | 76 | 34 | > 25000 | O=c1[nH]c2cc(/C=C3\c4ccccc4COc4cc(F)ccc43)ccc2n1[C@@H]1C[C@@H]2COCCN2C1 | 62
19 | 44 | 65 | > 30000 | > 37000 | 26100 | 17000 | > 37000 | 66 | 60 | > 60 | > 37000 | C[N+]1([O-])CCC2(CC1)C(=O)Nc1cc(/C=C3\c4ccccc4COc4cc(F)ccc43)ccc12 (configuration not stated) | 55
20 | 103 | – | – | – | – | – | – | – | – | – | – | O=C1COc2ccc(CCc3ccc(F)cc3F)cc2N1 | –
